Several values for one entry are separate records, joined by “and”; a condition that tells them apart may be missing. Equal values may be shown once.
What was measured:
[1] = test system: MUC5AC; design: method as in PMID 23187130; settings: airway epithelial cells; BIRB796 at high concentration; cited from earlier work
[2] = molecular target: T1, p38αT106M (Homo sapiens, UniProt Q16539, T106M); assay: KinaseProfiler quantitative kinase assay (Eurofins), MBP substrate; type: biochemical; settings: ATP at Km 70 µM, means of duplicate determinations
T1 construct: purchased Eurofins Pharma Discovery Services UK Limited (KinaseProfiler service)
T1 sequence (Q16539 whole entry T106M): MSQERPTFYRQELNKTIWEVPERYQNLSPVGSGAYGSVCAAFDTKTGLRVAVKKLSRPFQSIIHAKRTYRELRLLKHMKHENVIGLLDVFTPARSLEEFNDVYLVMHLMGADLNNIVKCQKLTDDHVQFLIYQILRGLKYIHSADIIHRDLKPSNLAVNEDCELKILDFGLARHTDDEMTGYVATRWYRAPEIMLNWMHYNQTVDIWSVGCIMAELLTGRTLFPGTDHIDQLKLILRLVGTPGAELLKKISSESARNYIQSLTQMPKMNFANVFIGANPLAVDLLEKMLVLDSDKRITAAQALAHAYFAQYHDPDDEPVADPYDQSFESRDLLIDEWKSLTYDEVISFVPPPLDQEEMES
Experimental: (§1) SU-002 derivatives (SU-001, 003, 004, 005, and 006, shown in Fig. 3A) were synthesized and the inhibitory activities of SU-002 and its derivatives against p38αT106M were tested. […] We then conducted quantitative kinase assay analyses including IC50 using the KinaseProfiler service of Eurofins Pharma Discovery Services. MBP was used as a substrate for all tested p38 isoforms: p38α, p38αT106M, p38γ, and p38δ. All p38 isoforms used were activated using a constitutively active mutant of MKK6. […] Next, we examined their effects in HeLa cells. […] To verify the specificity of SU-005 for p38δ, a FLAG-tagged p38δM107T was constructed and tested in a similar manner.
(§2) Quantitative kinase assay analyses including IC50 were conducted using the KinaseProfiler service of Eurofins Pharma Discovery Services UK Limited.

[3] = molecular target: T2, p38α (Homo sapiens, UniProt Q16539); assay: as above; type: biochemical; settings: ATP at Km 90 µM, means of duplicate determinations
T2 construct: purchased Eurofins Pharma Discovery Services UK Limited (KinaseProfiler service)
T2 sequence (Q16539 whole entry): as the sequence (Q16539 whole entry T106M) above, with M106T counted along it
Experimental: as §1, §2

[4] = molecular target: T3, p38δ (Homo sapiens, UniProt O15264); assay: as above; type: biochemical; settings: ATP at Km 15 µM, means of duplicate determinations
T3 construct: purchased Eurofins Pharma Discovery Services UK Limited (KinaseProfiler service)
T3 sequence (O15264 1-365): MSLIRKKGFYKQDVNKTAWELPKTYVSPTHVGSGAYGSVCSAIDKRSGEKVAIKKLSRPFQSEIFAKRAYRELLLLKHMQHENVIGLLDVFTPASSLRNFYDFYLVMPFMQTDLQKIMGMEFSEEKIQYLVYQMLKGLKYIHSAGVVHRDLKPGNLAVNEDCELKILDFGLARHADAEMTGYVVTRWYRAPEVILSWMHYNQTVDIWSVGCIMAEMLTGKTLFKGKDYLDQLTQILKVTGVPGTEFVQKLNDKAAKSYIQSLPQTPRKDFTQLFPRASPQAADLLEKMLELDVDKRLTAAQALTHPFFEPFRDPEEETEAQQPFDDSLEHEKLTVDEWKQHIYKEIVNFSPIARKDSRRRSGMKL
Experimental: as §1, §2

[5] = molecular target: T4, p38γ (Homo sapiens, UniProt P53778); assay: as above; type: biochemical; design: purchased Eurofins Pharma Discovery Services UK Limited (KinaseProfiler service); settings: ATP at Km 15 µM, means of duplicate determinations
T4 sequence (P53778 1-367): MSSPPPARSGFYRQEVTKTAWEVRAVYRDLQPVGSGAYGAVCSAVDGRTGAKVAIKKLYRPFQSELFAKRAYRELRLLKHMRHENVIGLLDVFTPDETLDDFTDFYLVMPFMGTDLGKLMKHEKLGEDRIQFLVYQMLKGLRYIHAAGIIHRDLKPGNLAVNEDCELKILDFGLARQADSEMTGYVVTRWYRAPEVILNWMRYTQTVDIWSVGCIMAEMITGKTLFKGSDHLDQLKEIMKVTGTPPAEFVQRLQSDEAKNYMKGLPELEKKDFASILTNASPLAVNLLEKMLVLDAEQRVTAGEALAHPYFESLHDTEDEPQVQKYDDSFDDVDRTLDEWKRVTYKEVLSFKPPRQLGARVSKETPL
Experimental: as §1, §2

[6] = molecular target: T5, GST-p38αT106M (Homo sapiens, UniProt Q16539, T106M); assay: In vitro kinase assay, GST-ATF2 substrate, [γ-32P]ATP; type: biochemical
T5 construct: made in house
T5 sequence (Q16539 whole entry T106M): as the sequence (Q16539 whole entry T106M) above
Experimental: (§3) Bacterially produced GST-p38α and GST-p38αT106M were used for the kinase assay. GST-ATF2 (1–109)[34] was used as a substrate. The assay conditions used have been previously described. […] DMSO (1 μL) was used instead of compound as a negative control. Then, the mixture was combined with the solution containing 1 μg substrate protein, 185 kBq [γ-^32P]ATP and 20 μΜ ATP to generate a 15 μL reaction mixture and incubated for 30 min at 30 °C. The reaction was terminated by adding 7.5 μL of 3 × SDS sample buffer and boiled for 5 min. Phosphorylated substrate protein was then separated by 12.5% SDS- polyacrylamide gel electrophoresis and visualized by autoradiography.

[7] = molecular target: T6, GST-p38αT106M mutant (Homo sapiens, UniProt Q16539, T106M); assay: Comparative chemical array screening, binding to GST-p38αT106M; settings: Table S2
T6 construct: made in house; host or cells: bacteria (stated for the kinase assay)
T6 sequence (Q16539 whole entry T106M): as above
Experimental: Photo-cross-linked chemical arrays were prepared by the previously described method[33] utilizing a photoaffinity proline linker that had both PEG and a polyproline helix as spacers.
The slides were then washed with TBS-T buffer (10 mM Tris/HCl, 150 mM NaCl, 0.05% Tween-20, pH 8.0) three times for 5 min each and centrifuged (480 × g, 1 min) to dry. […] After washing with TBS-T buffer, the slides were incubated with an anti-GST antibody (30 μg/mL) in binding buffer at 30 °C for 1 h. This incubation was followed by another wash step and incubation with a secondary antibody (goat anti-rabbit IgG, Cy5 conjugate, 50 μg/mL in binding buffer) at 30 °C for 1 h. After the final wash step and spin dry, the slides were scanned at 635 nm on a GenePix 4300A microarray scanner (Molecular Devices). The fluorescence intensity (I) of each compound spot was quantified with GenePix 5.0 software with local background correction. Then, the difference (ΔΙ) of the fluorescence intensities between the GST-p38αT106M and GST-p38α-treated arrays was calculated by subtracting Ip38α from IT106M (ΔI = IT106M - Ip38α) for each spot. The mean and standard deviation (SD) of ΔI for all spots on the array were also calculated. The ΔΙ score of each spot was calculated using the following formula; ΔΙ score = (ΔI - mean)/SD. The compounds with a ΔΙ score larger than 2 were determined to be hit compounds for GST-p38αT106M. […]

[8] = molecular target: T7, endogenous p38γ (Homo sapiens, UniProt P53778); assay: Endogenous p38γ auto-phosphorylation in HEK293T cells, western blot; type: cell-based; settings: 10 μM, 0.2 M NaCl stimulation, Fig. 6
T7 construct: endogenous in cells; host or cells: HEK293T
T7 sequence (P53778 1-367): T4 sequence (P53778 1-367)
Experimental: For the analyses with HEK293T cells, 1 × 10^5 cells were seeded into each well of a 48-well plate. The next day, 10 μM SU derivative or SB202190 was added 1 h prior to stimulation of the cells with 0.2 M NaCl. The cells were further grown in DMEM supplemented with 10% FBS for 20 min. Then, the cells were rinsed once with PBS and harvested in 1 × SDS sample buffer.

[9] = molecular target: T8, GST-p38α (Homo sapiens, UniProt Q16539); assay: In vitro kinase assay, GST-ATF2 substrate, [γ-32P]ATP; type: biochemical; settings: Fig. 2C, SU-002 0.06-7.6 μM
T8 construct: made in house
T8 sequence (Q16539 whole entry): as the sequence (Q16539 whole entry T106M) above, with M106T counted along it
Experimental: as §3

Row | %kinase activity relative to control, p38αT106M ([2]; 1 µM) [%] | %kinase activity relative to control, p38αT106M ([2]; 10 µM) [%] | %kinase activity relative to control, p38α ([3]; 1 µM) [%] | %kinase activity relative to control, p38α ([3]; 10 µM) [%] | %kinase activity relative to control, p38δ ([4]; 1 µM) [%] | %kinase activity relative to control, p38δ ([4]; 10 µM) [%] | %kinase activity relative to control, p38γ ([5]; 1 µM) [%] | %kinase activity relative to control, p38γ ([5]; 10 µM) [%] | inhibition of p38αT106M kinase activity ([6]; 1 μM, Fig. 3B,C) | IT106M score ([7]; I score = (I − Imean)/ISD, duplicate spots) | ΔI score ([7]; ΔI = IT106M – Ip38α, ΔI score = (ΔI − ΔImean)/ΔISD, hit if larger than 2) | inhibition of endogenous p38γ phosphorylation [8] | inhibition of p38α kinase activity [9] | SMILES | inhibition of production of MUC5AC mRNA and protein [1] | inhibition of p38αT106M kinase activity ([6]; Fig. 2C,D, SU-002 0.012-7.6 μM)
1 | – | – | – | – | – | – | – | – | – | – | – | – | – | Cc1ccc(-n2nc(C(C)(C)C)cc2NC(=O)Nc2ccc(OCCN3CCOCC3)c3ccccc23)cc1 [BIRB796] | markedly inhibited | –
2 | 99 ± 0 | 91 ± 6 | 91 ± 13 | 72 ± 2 | 94 ± 2 | 92 ± 1 | 103 ± 8 | 95 ± 2 | did not inhibit | – | – | – | – | Nc1nnc(Sc2ccnc3cc(Cl)ccc23)s1 [SU-001] | – | –
3 | 83 ± 7 | 72 ± 2 | 88 ± 6 | 94 ± 5 | 90 ± 0 | 96 ± 0 | 92 ± 5 | 88 ± 2 | clearly impaired | 4.80 and 3.66 | 6.30 and 4.89 | similarly potent inhibitory activities | this inhibition was not seen | CCCCCCCC(=O)Nc1nnc(Sc2ccnc3cc(Cl)ccc23)s1 [SU-002] | – | inhibited the kinase activity of p38αT106M in a dose-dependent manner
4 | 96 ± 4 | 94 ± 1 | 92 ± 8 | 94 ± 6 | 99 ± 2 | 81 ± 1 | 112 ± 3 | 104 ± 6 | – | – | – | no or weak inhibitory activity | – | CC(=O)Nc1nnc(Sc2ccnc3cc(Cl)ccc23)s1 [SU-003] | – | –
5 | 99 ± 0 | 94 ± 3 | 91 ± 2 | 86 ± 3 | 100 ± 4 | 97 ± 3 | 111 ± 4 | 104 ± 8 | – | – | – | no or weak inhibitory activity | – | CCCCCC(=O)Nc1nnc(Sc2ccnc3cc(Cl)ccc23)s1 [SU-004] | – | –
